According to US6355823B1 (Board of Regents, The University of Texas System, priority 1999, dated 2002):
Several values for one entry are separate records, joined by “and”; a condition that tells them apart may be missing. Identical values can stand only once. Like-named read-outs stand apart in the source and are kept apart here.

What was measured:
[1] = system: rats on a 0.9% phosphorus diet; experiment: Serum phosphate after withdrawal of 2′-PP (in vivo half-life); parameters: species or system rat
Protocol: Rats on a 0.9% phosphorus diet were given 10 μM [^3H]2′-PP in their water for 2 weeks. Serum phosphate and calcium were determined by spectrophotometric assays. Following the experimental period, 2′-PP was removed from the water, and the stool was examined for radioactivity at days 1, 3, 5 and 8, and serum phosphate was examined.
The apparent half-time to return to normal serum phosphate levels was approximately 3 days. […] During this maturation period, crypt cells express the intestinal brush border membrane Na/phosphate co-transporter.

[2] = molecular target: T1, intestinal Na/phosphate co-transporter (Oryctolagus cuniculus, UniProt G1SIP4); experiment: Na-dependent [32P]phosphate uptake by rabbit intestinal brush border membrane (BBM) vesicles; conditions: for type of inhibition of Na-dependent phosphate uptake: Dixon plot, with respect to phosphate
T1 sequence (G1SIP4 1-715): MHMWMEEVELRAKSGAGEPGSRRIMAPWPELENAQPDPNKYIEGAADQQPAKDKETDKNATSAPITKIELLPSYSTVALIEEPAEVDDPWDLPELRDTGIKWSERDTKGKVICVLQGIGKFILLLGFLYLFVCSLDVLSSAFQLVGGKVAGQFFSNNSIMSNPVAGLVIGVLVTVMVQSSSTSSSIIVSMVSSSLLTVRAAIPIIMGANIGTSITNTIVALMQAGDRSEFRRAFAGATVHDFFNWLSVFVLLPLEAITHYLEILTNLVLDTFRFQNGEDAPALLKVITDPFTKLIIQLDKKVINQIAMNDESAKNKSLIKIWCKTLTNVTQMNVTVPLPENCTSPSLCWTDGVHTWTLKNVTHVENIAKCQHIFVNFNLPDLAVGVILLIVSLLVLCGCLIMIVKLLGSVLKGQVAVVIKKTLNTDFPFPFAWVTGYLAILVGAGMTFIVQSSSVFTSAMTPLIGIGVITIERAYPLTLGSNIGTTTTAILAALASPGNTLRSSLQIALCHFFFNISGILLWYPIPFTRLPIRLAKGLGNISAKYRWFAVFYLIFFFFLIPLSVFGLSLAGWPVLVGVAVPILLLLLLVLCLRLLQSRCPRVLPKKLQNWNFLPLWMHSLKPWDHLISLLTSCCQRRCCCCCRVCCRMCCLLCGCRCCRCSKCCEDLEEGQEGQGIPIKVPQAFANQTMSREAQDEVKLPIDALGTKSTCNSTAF

[3] = Radioactivity in urine, stool, kidney and liver after [3H]2′-PP; type: in vivo, rat
Protocol: (§1) Ten rats with normal renal function were treated with varied amounts of [^3H]2′-PP by gavage for seven days. The 2′-PP was given once/day in a solution containing 270 mM sucrose and 10 mM Tris-Cl pH 7.4. Blood was withdrawn 1, 4, and 7 days from the start of the treatment and analyzed for serum phosphate and serum calcium, with the results shown in Table 1. A second, one-week trial was performed adding 2′-PP to the drinking water. Blood was withdrawn at 1, 4 and 7 days and assayed for calcium and phosphate. Dietary phosphorus was increased from 0.9% to 5% for one week, and the experiment repeated at the elevated dietary phosphorus with 2′-PP added to the drinking water for an additional two weeks. The amount of radioactivity in the urine and stool as examined. After two weeks, the animals were sacrificed, and the kidney and liver were examined for radioactivity.
After 4 weeks on 2′-PP, the rats were sacrificed and their kidneys and liver examined for radioactivity. […] A crude estimate of 2′-PP turnover time was calculated from the amount of radioactivity in the stool after administration of [^3H]2′-PP was discontinued; and the 2′-PP half-life was estimated as 12±1 hr.

[4] = system: rats with normal renal function; experiment: Second 2-week study of 2′-PP in drinking water (FIG. 10, 11); type: in vivo, rat
Protocol: Serum phosphate again decreased in a 2′-PP concentration-dependent manner immediately after its addition to the rats' drinking water. After 2 weeks on 2′-PP, serum phosphate was reduced to between 1.8 mM on 1 μM 2′-PP and 1.2 mM at 25 μM 2′-PP. […] This decrease in serum calcium may be related to a slight volume expansion. The rats receiving 5 μM or higher concentrations of 2′-PP drank 2-4 times more water than normal for the first 4 days of the study. After the first 4 days, water consumption returned to normal.

[5] = molecular target: intestinal brush border membrane alkaline phosphatase (Oryctolagus cuniculus, UniProt G1SXE4); experiment: biochemical; type: biochemical
intestinal brush border membrane alkaline phosphatase, sequence (G1SXE4 25-504): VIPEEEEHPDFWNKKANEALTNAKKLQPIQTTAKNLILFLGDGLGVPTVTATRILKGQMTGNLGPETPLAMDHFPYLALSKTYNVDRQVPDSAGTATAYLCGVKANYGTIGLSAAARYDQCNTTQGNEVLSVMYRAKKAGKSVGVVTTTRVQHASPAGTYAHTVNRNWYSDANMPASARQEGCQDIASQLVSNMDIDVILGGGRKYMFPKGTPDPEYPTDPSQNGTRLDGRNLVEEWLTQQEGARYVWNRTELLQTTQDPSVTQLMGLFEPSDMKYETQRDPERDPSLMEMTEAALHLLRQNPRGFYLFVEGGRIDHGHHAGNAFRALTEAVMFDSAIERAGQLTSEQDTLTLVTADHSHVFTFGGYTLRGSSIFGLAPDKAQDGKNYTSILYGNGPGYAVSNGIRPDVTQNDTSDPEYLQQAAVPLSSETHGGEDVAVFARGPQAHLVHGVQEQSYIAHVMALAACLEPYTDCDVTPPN

[6] = system: rats with normal renal function; experiment: Effect of 2′-PP on rat survival, serum phosphate and serum calcium (Table 1 study); type: in vivo; conditions: for Serum calcium / Serum phosphate: seven days after beginning treatment
Protocol: as §1
Serum calcium levels (2.1 mM±0.18 mM) remained unchanged (7% fluctuation compared to 3% error in duplicate determinations) on both the normal and high phosphate diets irrespective of 2′-PP concentration. […] Serum phosphate was 2.5±0.2 mM prior to administration of 2′-PP (n=12). […] Rats on the high phosphate diet required higher 2′-PP concentrations to achieve the same results, however, similar decreases in serum phosphate were seen. […] At 10 μM 2′-PP, rats on the high phosphorus diet had serum phosphate levels below that seen in untreated rats on the normal phosphate diet.
The values given are measured seven days after beginning treatment with the indicated 2′-PP concentration. Results are from duplicate rats and assayed in triplicate.

[7] = molecular target: T2, intestinal BBM Na/phosphate co-transporter (Oryctolagus cuniculus, UniProt G1SIP4)
T2 sequence (G1SIP4 25-715): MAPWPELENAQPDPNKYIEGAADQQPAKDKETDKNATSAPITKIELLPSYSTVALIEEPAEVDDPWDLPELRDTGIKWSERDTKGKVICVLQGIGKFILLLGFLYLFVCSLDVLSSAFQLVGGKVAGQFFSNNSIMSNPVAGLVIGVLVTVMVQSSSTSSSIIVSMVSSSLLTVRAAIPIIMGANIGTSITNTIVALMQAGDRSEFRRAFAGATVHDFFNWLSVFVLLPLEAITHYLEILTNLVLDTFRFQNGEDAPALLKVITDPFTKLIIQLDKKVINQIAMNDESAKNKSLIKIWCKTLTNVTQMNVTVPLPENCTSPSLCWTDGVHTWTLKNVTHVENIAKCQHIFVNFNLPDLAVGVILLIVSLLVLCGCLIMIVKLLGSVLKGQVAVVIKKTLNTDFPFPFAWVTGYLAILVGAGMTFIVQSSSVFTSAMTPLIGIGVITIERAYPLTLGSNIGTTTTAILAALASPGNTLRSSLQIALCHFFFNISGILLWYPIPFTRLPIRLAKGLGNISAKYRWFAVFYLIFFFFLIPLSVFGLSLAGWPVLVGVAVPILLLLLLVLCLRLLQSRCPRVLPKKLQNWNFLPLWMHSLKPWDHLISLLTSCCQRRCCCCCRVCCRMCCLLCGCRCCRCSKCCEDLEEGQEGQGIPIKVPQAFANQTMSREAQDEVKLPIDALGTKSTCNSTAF

[8] = system: intestinal Na/phosphate co-transporter; experiment: [3H]AZPP photolabeling of Ca-BBM protein, papain digest and immunoprecipitation; type: binding
Protocol: Ca-BBM protein (1.8 nmoles 2′-PP binding sites as determined from 9 pmoles [^3H]2′-PP bound/mg protein) was labeled with [^3H]AZPP (1 minute incubation with 10 μM [^3H]AZPP at 4° C. in 150 mM NaCl and 10 mM sodium borate pH 7, followed by a 1 minute exposure to visible light). Following centrifugation to remove excess label, BBM protein was digested with papain as previously described in Peerce, B. E. (1995) Biochim. Biophys. Acta. 1239: 11-21 and Peerce, B. E.; Cedilote, M. and Clarke, R. D. (1995) Biochim. Biophys. Acta. 1239: 1-10, and resolved into membrane-retained and soluble peptides. 95% of the radioactivity was in the membrane-retained fraction. SDS-solubilization of the membrane-retained fraction released 85% of the radioactivity.
A polyclonal antibody to the intestinal Na/phosphate co-transporter (KL9.2) developed in the laboratory was used to immunoprecipitate CHAPS-solubilized [^3H]AZPP-labeled Ca-BBM protein. The complex was electrophoresed by SDS-PAGE and stained with Coomassie blue, according to the method of Laemmli, U.K 1970 Nature (Lond.) 227: 680-685. A track was cut into 2 mm slices, and the slices counted for tritium. […] The residual 12%±2%, n=3, of the applied label appeared to be non-specifically associated with lipid (chloroform:methanol extracted).

[9] = 10 μM [3H]2′-PP in water for 2 weeks, then removed
[10] = High Phosphate Diet, [2′-PP] 1 μM
[11] = High Phosphate Diet, [2′-PP] 2 μM
[12] = High Phosphate Diet, [2′-PP] 5 μM
[13] = High Phosphate Diet, [2′-PP] 10 μM
[14] = High Phosphate Diet, [2′-PP] 25 μM
[15] = Normal Phosphate Diet, [2′-PP] 1 μM
[16] = Normal Phosphate Diet, [2′-PP] 2 μM
[17] = Normal Phosphate Diet, [2′-PP] 5 μM
[18] = Normal Phosphate Diet, [2′-PP] 10 μM
[19] = Normal Phosphate Diet, [2′-PP] 25 μM
[20] = four weeks of treatment with 2′-PP

O=C(CCc1ccc(O)cc1)c1c(O)cc(O)cc1OP(=O)(O)O
apparent half-time to return to normal serum phosphate levels [1, 9]: approximately 3 days
time for serum phosphate to return to normal (control) level after withdrawal [1, 9]: five
inhibition at 10 µM ([1]; Rattus norvegicus, 10 μM 2′-PP administered daily, read-out: inhibition of the Na/phosphate co-transporter in vivo): ~100%
Ki [2]: 0.59 ± 0.08 µM
type of inhibition of Na-dependent phosphate uptake [2]: competitive with respect to phosphate
change in apparent k0.5 for inhibition of Na-dependent [32P]phosphate uptake after pre-incubation with Ca-BBM ([2]; incubations of up to 10 minutes at 23° C.): no measurable change
radioactivity in the urine, kidney, or the liver ([3]; after 4 weeks on [3H]2′-PP): No measurable radioactivity
permeation across the intestinal membrane ([3]; at the concentrations tested): relatively impermeant
2′-PP half-life (turnover time) ([3]; crude estimate from radioactivity in the stool after [3H]2′-PP was discontinued): 12 ± 1 h
water consumption relative to normal ([4]; 5 μM or higher concentrations of 2′-PP, first 4 days of the study): 2-4 times
Serum calcium ([4]; 2′-PP concentrations of 5 μM and higher): significant decrease
Serum phosphate ([4]; after 2 weeks at 25 μM 2′-PP in drinking water): 1.2 mM
Serum phosphate ([4]; after 2 weeks on 1 μM 2′-PP in drinking water): 1.8 mM
substrate of alkaline / apical membrane phosphatase [5]: substrate of alkaline phosphatase
type of inhibition of alkaline phosphatase [5]: competitive inhibitor
inhibition at 50 µM ([5]; read-out: inhibition of alkaline phosphatase): 33%
Serum calcium [6, 10]: 2.1 ± 0.1 mM
Serum phosphate [6, 10]: 4.4 ± 0.2 mM
Serum calcium [6, 11]: 2.1 ± 0.1 mM
Serum phosphate [6, 11]: 3.3 ± 0.2 mM
Serum calcium [6, 12]: 2.1 ± 0.1 mM
Serum phosphate [6, 12]: 2.6 ± 0.1 mM
Serum calcium [6, 13]: 2.1 ± 0.1 mM
Serum phosphate [6, 13]: 2.0 ± 0.04 mM
Serum calcium [6, 14]: 2.0 ± 0.1 mM
Serum phosphate [6, 14]: 1.8 ± 0.08 mM
Serum calcium [6, 15]: 2.1 ± 0.08 mM
Serum phosphate [6, 15]: 2.5 ± 0.1 mM
Serum calcium [6, 16]: 2.1 ± 0.1 mM
Serum phosphate [6, 16]: 2.2 mM and 2.2 ± 0.1 mM
Serum calcium [6, 17]: 2.1 ± 0.05 mM
Serum phosphate [6, 17]: 2.0 ± 0.07 mM
Serum calcium [6, 18]: 2.0 ± 0.1 mM
Serum phosphate [6, 18]: 1.8 ± 0.1 mM
Serum calcium [6, 19]: 2.1 ± 0.1 mM
Serum phosphate [6, 19]: 1.4 mM and 1.4 ± 0.1 mM
change in weight [6, 20]: nor did they suffer any measurable change in weight
rat survival [6, 20]: none of the rats died
Serum calcium levels (remained unchanged) ([6]; normal and high phosphate diets, irrespective of 2′-PP concentration): 2.1 mM
2′-PP bound (kinetic analysis of trace B) [7]: 8.5 pmoles 2′-PP bound/mg protein
2′-PP bound at infinite osmotic strength [7]: 8±0.6 pmoles of 2′-PP bound/mg protein
2′-PP bound in the absence of Na [7]: 0.12±0.005 pmoles 2′-PP bound/mg protein
Hill coefficient nH of Na effect on 2′-PP binding [7]: 1.9±0.25
[3H]2′-PP binding sites [7]: 9 pmoles [^3H]2′-PP bound/mg protein
apparent K0.5 for Na (Na concentration at 50% 2′-PP bound) [7]: 23 ± 3 mM
transport by the Na/phosphate co-transporter [7]: not transported

[N-]=[N+]=Nc1cc(CCC(=O)c2c(O)cc(OP(=O)(O)O)cc2O)ccc1O [AZPP, 1-[2,6-dihydroxy-4-(phosphonooxy)phenyl]-3-(3-azido-4-hydroxyphenyl)-1-propanone]
labeled species on urea gel electrophoresis after papain digestion of SDS soluble protein [8]: single 24 kDa polypeptide
radioactivity released by SDS-solubilization of the membrane-retained fraction [8]: 85%
radioactivity in the membrane-retained fraction after papain digestion ([8]; 10 μM [3H]AZPP, 4° C., 150 mM NaCl, visible light): 95%
labeled species on SDS-PAGE after immunoprecipitation with antibody KL9.2 ([8]; CHAPS-solubilized labeled Ca-BBM protein): single 120-kDa polypeptide
residual applied label non-specifically associated with lipid ([8]; chloroform:methanol extracted, n=3): 12%

O=C(CCc1ccc(O)cc1)c1c(O)cc(NP(=O)(O)O)cc1O [NHPP]
type of inhibition of Na-dependent phosphate uptake [2]: competitive inhibitor
Ki ([2]; read-out: K1 (Kl) for inhibition of Na-dependent phosphate uptake, from replot of Dixon plot slope, phosphate 50, 100, 250 μM, n=3): 6.9 ± 1 µM

Phosphate [reference compound]
IC50 ([7]; read-out: concentration inhibiting 50% of Na-dependent 2′-PP bound to Ca-BBM): 105 ± 15 µM
